Measured values reported in patent US20180369210A1, “METHODS AND COMPOSITIONS FOR TREATING LYSOSOMAL STORAGE DISORDERS” (Lysosomal Therapeutics Inc., priority 2015, published 2018).
pIC50: −log10 of the molar value.

Target: T1, acid ceramidase (Homo sapiens, UniProt Q13510)
T1 sequence (Q13510 22-395): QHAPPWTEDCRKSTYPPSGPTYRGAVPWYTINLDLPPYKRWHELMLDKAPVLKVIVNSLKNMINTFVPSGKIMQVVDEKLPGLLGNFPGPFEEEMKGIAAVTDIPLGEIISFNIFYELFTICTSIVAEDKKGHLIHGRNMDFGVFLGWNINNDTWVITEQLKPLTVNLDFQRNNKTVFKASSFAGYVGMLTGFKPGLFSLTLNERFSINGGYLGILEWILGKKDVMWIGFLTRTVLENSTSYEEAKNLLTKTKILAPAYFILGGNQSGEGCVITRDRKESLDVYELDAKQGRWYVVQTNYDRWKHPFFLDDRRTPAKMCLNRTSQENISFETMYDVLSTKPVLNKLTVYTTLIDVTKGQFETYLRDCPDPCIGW
Experiment: Acid ceramidase fluorescent intensity assay with fluorogenic substrate Rbm 14-12
Format: biochemical
Details: cell lysates enriched with acid ceramidase; 1 hour preincubation; substrate Rbm 14-12 6.3 μM; pH 4.5; room temperature, 1 or two hours; read-out: average IC50 value for the 1 and 2 hour time points, inhibition of acid ceramidase activity
Description: Inhibition of acid ceramidase activity by compound 25 of Table 2 was evaluated in a fluorescent intensity assay using a fluorogenic substrate Rbm 14-12 […]. Compound 25 was incubated with cell lysates enriched with acid ceramidase for 1 hour in an assay buffer containing 50 mM NaOAc and 100 mM NaCl at pH 4.5. The reaction was initiated by the addition of the substrate at a final concentration of 6.3 μM and the mixture was incubated at room temperature for 1 or two hours. At the appropriate time, the reaction was quenched by the addition of methanol and treated with NaIO4 (fresh 2.5 mg/ml solution was made in 100 mM glycine/NaOH buffer, pH 10.6), followed by incubation for 1 hour at room temperature. Fluorescent intensity was measured using a plate reader at ex 355 nm and em 460 nm.

O=C(NCCCCc1ccccc1)n1c(=O)oc2cc(-c3ccc(F)cc3)ccc21 [Compound 25, 6-(4-fluorophenyl)-2-oxo-N-(4-phenylbutyl)-1,3-benzoxazole-3-carboxamide]
pIC50: 6.30 to 6.60
